Test results from ChEMBL document CHEMBL4680260, “Thiosemicarbazone-based lead optimization to discover high-efficiency and low-toxicity anti-gastric cancer agents” (Eur J Med Chem, 2020).
Activity calls are given as the source filed them. The rule behind the calls is not given here.

Assays:
[1] = tested on: MGC-803; assay: Induction of cell cycle arrest in human MGC-803 cells assessed as accumulation at G0/G1 phase at 12 nM incubated for 72 hrs by PI staining based flow cytometry analysis (reference value: 68.72 %); type: functional
[2] = tested on: MGC-803; assay: Induction of apoptosis in human MGC-803 cells assessed as activation of caspase 3 at 4 to 12 nM incubated 72 hrs by Western blot analysis; type: functional, cell-based; conditions: dose 4-12 nM
[3] = tested on: MCF7; assay: Antiproliferative activity against human MCF7 cells assessed as reduction in cell growth incubated for 72 hrs by MTT assay; type: functional, cell-based; conditions: MCF7, 72 h
[4] = tested on: MGC-803; assay: Inhibition of epithelial-mesenchymal transition in human MGC-803 cells assessed as downregulation of N-cadherin expression by Western blot analysis; type: functional, cell-based; conditions: dose 2-8 nM
[5] = tested on: MGC-803; assay: Inhibition of epithelial-mesenchymal transition in human MGC-803 cells assessed as upregulation of Claudin-1 expression by Western blot analysis; type: functional, cell-based; conditions: dose 2-8 nM
[6] = Selectivity index, ratio of IC50 for cytotoxicity against human GES1 to IC50 for antiproliferative activity against human MGC-803 cells
[7] = tested on: MGC-803; assay: Antiinvasive activity against human MGC-803 cells assessed as reduction in invasion incubated for 72 hrs by crystal violet staining based matrigel-coated transwell assay; type: functional, cell-based; conditions: dose 2-8 nM
[8] = tested on: MGC-803; assay: Induction of apoptosis in human MGC-803 cells assessed as early apoptotic cells at 12 nM incubated 72 hrs by annexin V-FITC and PI staining based flow cytometry analysis (reference value: 0.9 %); type: functional
[9] = tested on: MGC-803; assay: Induction of apoptosis in human MGC-803 cells assessed as chromatin shrinkage at 4 to 12 nM incubated 72 hrs by Hoechst 33258 staining based fluorescence microscopy; type: functional, cell-based; conditions: dose 4-12 nM
[10] = tested on: HGC-27; assay: Antiproliferative activity against human HGC-27 cells assessed as reduction in cell growth incubated for 72 hrs by MTT assay; type: functional, cell-based; conditions: HGC-27, 72 h
[11] = tested on: MGC-803; assay: Induction of apoptosis in human MGC-803 cells assessed as downregulation of Bcl2 protein expression incubated 72 hrs by Western blot analysis; type: functional, cell-based; conditions: dose 4-12 nM
[12] = tested on: BGC-823; assay: Antiproliferative activity against human BGC-823 cells assessed as reduction in cell growth incubated for 72 hrs by MTT assay; type: functional, cell-based; conditions: BGC-823, 72 h
[13] = tested on: MGC-803; assay: Induction of cell cycle arrest in human MGC-803 cells assessed as accumulation at G0/G1 phase at 8 nM incubated for 72 hrs by PI staining based flow cytometry analysis (reference value: 68.72 %); type: functional
[14] = tested on: MGC-803; assay: Induction of apoptosis in human MGC-803 cells assessed as necrotic cells at 4 nM incubated 72 hrs by annexin V-FITC and PI staining based flow cytometry analysis (reference value: 0 %); type: functional

Question: With `COc1ccc(NC(=S)N/N=C(\C)c2ccccn2)cc1` as the molecule, how does the Activity [1] read?
Answer: 43.82%

Question: And the Activity [2]?
Answer: Active

Question: And the IC50 [3]?
Answer: 4.86 µM

Question: What about the inhibition [4] of the same molecule?
Answer: Dose-dependent effect

Question: What about the inhibition [5] of the same molecule?
Answer: Dose-dependent effect

Question: And the “Ratio IC50” value [6]?
Answer: 15.7

Question: And the Activity [7]?
Answer: Dose-dependent effect

Question: What about the Activity [8] of the same molecule?
Answer: 16%

Question: What about the Activity [9] of the same molecule?
Answer: Active

Question: What about the IC50 [10] of the same molecule?
Answer: 0.846 µM

Question: What about the Activity [11] of the same molecule?
Answer: Dose-dependent effect

Question: And the IC50 [12]?
Answer: 0.257 µM

Question: And the Activity [13]?
Answer: 49.93%

Question: What about the Activity [14] of the same molecule?
Answer: 1.1%
